In US11773381B2, “Cell penetrating peptide, conjugate comprising same, and composition comprising conjugate” (GemVax & KAEL CO., LTD., priority 2012, dated 2023):

test system: HeLa cell; test: Cell penetration of pep(CPP)-FITC conjugates in HeLa cell line, flow cytometry (FACS); type: cell-based, Homo sapiens; settings: HeLa cells, 20 μM of each carrier peptide combined with FITC, 37° C. for an hour, control cells treated only FITC
Procedure: Homo sapiens cervix adenocarcinoma cell line as HeLa cell lines were purchased from ATCC (American Type Cell Culture). The cells were cultured in MEM supplemented with 10% fetal bovine serum (Invitrogen, USA), Earle's salts, non-essential amino acids, sodium pyruvate and 100 μg/ml penicillin and 10 units/ml streptomycin and cultured at 37° C., 5% CO2 incubator.
Flow cytometry and Confocal microscope analysis were performed to compare the between degree of cellular uptake of the cells were treated with SEQ ID NO: 1 to SEQ ID NO: 156, pep (CPP) and control.
The cell line was divided in a 6-well plate and cultured in a medium containing 10% fetal bovine serum (Invitrogen, USA), […] at 37° C., 5% CO2 incubator for 12 hours. After washing the cell line with PBS, starvation was induced in a Minimum Essential Medium for an hour. 20 μM of each carrier peptide was treated and cultured at 37° C. for an hour. After repeating the step of washing the cells with PBS for three times, Trypsin-EDTA was treated form 10 mins at 37° C. to separate the carrier peptide on the outside of the cell. cells were collected with refrigerated PBS and centrifugation was performed to repeat the step of washing the cells for three times. After then, the cells were suspended in 0.5 ml of PBS containing 4% Paraformaldehyde and fluorescence of the cells was analyzed using FACS Calibur (Becton Dickinson). The cellular uptake aspect of control and various peptides combined with FITC was compared and analyzed by MFI (Mean Fluorescence Intensity).
Analysis results shown in FIG. 1 to FIG. 23 are given in detail in Table 3 below.

Sequence | cellular uptake, MFI (Mean Fluorescence Intensity)
RPALLTSRLRFIPKP (listed as Homo sapiens) [pep41] | 28.97 ± 3.44
RPGLLGASVL (listed as Homo sapiens) [pep21] | 13.22 ± 1.67
RPIVNMDYVVGARTFRREKR (listed as Homo sapiens) [pep139] | 29.95 ± 0.28
RPSLTGARRLVETIFLGSRP (listed as Homo sapiens) [pep125] | 28.62 ± 2.12
RQHHAGPPSTSRPPRPWDTP (listed as Homo sapiens) [pep65] | 12.72 ± 1.36
RRPGLLGAS (listed as Homo sapiens) [pep28] | 14.08 ± 3.11
RRPGLLGASVLGLDDIHRAW (listed as Homo sapiens) [pep141] | 20.89 ± 0.31
RRSPGVGCVPAAEHRLREEI (listed as Homo sapiens) [pep76] | 13.98 ± 0.11
RSLLRSHYREVLPLATFVRR (listed as Homo sapiens) [pep108] | 22.53 ± 0.95
RTFRREKRAERLTSR (listed as Homo sapiens) [pep43] | 29.88 ± 2.35
RTFVLRVRAQDPPPE (listed as Homo sapiens) [pep8] | 17.75 ± 1.96
RTRGPSDRGFCVVSPARPAE (listed as Homo sapiens) [pep63] | 21.3 ± 1.55
SGPRRRLGCERAWNHSVREA (listed as Homo sapiens) [pep117] | 23.11 ± 2.46
SHVSTLTDLQPYMRQFVAHL (listed as Homo sapiens) [pep88] | 16.43 ± 0.55
SLCYSILKAKNAGMSLGAKG (listed as Homo sapiens) [pep102] | 45.84 ± 1.58
SLPLPKRPRRGAAPEPERTP (listed as Homo sapiens) [pep119] | 13.23 ± 0.64
SRPPRPWDTPCPPVYAETKH (listed as Homo sapiens) [pep123] | 18.03 ± 2.83
SVLGLDDIH (listed as Homo sapiens) [pep31] | 14.93 ± 2.05
SVLGLDDIHR (listed as Homo sapiens) [pep17] | 15.26 ± 2.23
SVLNYERAR (listed as Homo sapiens) [pep24] | 13.78 ± 1.07

Sequence | cellular uptake, MFI (Mean Fluorescence Intensity)
SVLNYERARR (listed as Homo sapiens) [pep16] | 20.12 ± 1.84
SVLNYERARRPGLLG (listed as Homo sapiens) [pep3] | 18.23 ± 3.21
SYLPNTVTDALRGSGAWGLL (listed as Homo sapiens) [pep56] | 28.61 ± 0.44
THCPLRAAVTPAAGVCAREK (listed as Homo sapiens) [pep128] | 14.36 ± 1.21
TKKFISLGKHAKLSLQELTW (listed as Homo sapiens) [pep132] | 26.39 ± 0.95
TQLSRKLPGTTLTALEAAAN (listed as Homo sapiens) [pep105] | 13.23 ± 2.21
VAQCLVCVPWDARPPPAAPS (listed as Homo sapiens) [pep110] | 22.04 ± 0.77
VARVLQRLCERGAKNVLAFG (listed as Homo sapiens) [pep54] | 388.45 ± 2.94
VETIFLGSRPWMPGTPRRLP (listed as Homo sapiens) [pep68] | 27.28 ± 1.28
VLGLDDIHR (listed as Homo sapiens) [pep23] | 15.68 ± 2.03
VLGLDDIHRA (listed as Homo sapiens) [pep13] | 14.01 ± 1.32
VLNYERARR (listed as Homo sapiens) [pep25] | 18.62 ± 0.69
VLPLATFVRRLGPQGWRLVQ (listed as Homo sapiens) [pep51] | 59.81 ± 1.38
VRRYAVVQKAAHGEVRKAFK (VRRYAVVQKAAHGHVRKAFK; listed as Homo sapiens) [pep87] | 38.35 ± 2.27
VTETTFQKNRLFFYR (listed as Homo sapiens) [pep37] | 20.81 ± 1.02
WMPGTPRRLPRLPQRYWQMR (listed as Homo sapiens) [pep126] | 3362.29 ± 3.24
WSKLQSIGIRQHLKRVQLRE (listed as Homo sapiens) [pep79] | 31.2 ± 1.52
YERARRPGL (listed as Homo sapiens) [pep11] | 10.46 ± 1.99
YERARRPGLL (listed as Homo sapiens) [pep20] | 20.73 ± 2.45
